According to publication PMC4593031, “Azobenzene Modified Imidacloprid Derivatives as Photoswitchable Insecticides: Steering Molecular Activity in a Controllable Manner” (Scientific Reports, 2015):
“And” between values parts separate entries of the source, which are not always exact repeats. Identical values can stand only once. Like-named read-outs stand apart in the source and are kept apart here.

Experiments:
[1] = UV/Vis absorption of photoisomers; format: physicochemical; details: for λmax n-π* (cis): cis isomer; for λmax π-π* (trans): trans isomer
Text: The photoswitchable behaviors of AMIs at room temperature were characterized by UV/Vis absorption, NMR spectroscopy and HPLC studies. […] Upon irradiation with ultraviolet (365 nm), a gradual intensity decrease at 327 nm and increase at 410–500 nm was detected corresponding to the π–π* and n–π* transition band, respectively (Fig. 3B). The reverse spectral changes were observed upon irradiation at 436 nm (data not shown). All the other compounds gave the similar spectral changes when illuminated with light. The proportions of E/Z isomer at the photostationary states before and after irradiation were determined by HPLC analysis (Table 1). Most of the compounds could produced more than 80% cis isomers upon irradiation. […] The photoisomerization of AMI-10 was further identified by ^1H NMR spectroscopy with the notable appearance of two double peaks at δ 7.25 and 6.85, respectively (Supplementary Fig. S1 online).
Varian Cary 100 UV-vis spectrophotometer was used for obtaining absorption (UV-Vis) spectra. The solutions of compounds were irradiated with a UV lamp (365 nm). The cis to trans photoisomeriation were performed with a light-emitting diode (blue light, 450 nm). The corresponding UV-Vis spectrums were collected in supplmentary files. The photostationary states were determined by high performance liquid chromatography (HPLC) measurements and the trans/cis ratios were calculated at the isosbestic points.

[2] = tested on: house fly (Musca domestica); experiment: Insecticidal test for house fly by intrathoracic injection; format: in vivo; details: for Musca domestica in vivo LD50: intrathoracic injection, mortality at 24 h
Method: The ability of azobenzene to regulate insecticidal activities remains unexplored. To better understand the activity changes induced by light, the efficacy before and after irradiation was tested by leaf-dip method for cowpea aphid (Aphis craccivora) and intrathoracic injection against house fly (Musca domestica)[46][47]. Against cowpea aphid, all the isomers had low activity and no significant difference was observed between two photo isomers (Supplementary Table S1 online). We attribute this observation to the poor solubility at the testing concentrations.
Thus, injection of chemicals into house fly was employed to evaluate their intrinsic activity (Table 2). House fly is a most commonly used indicator for both in vitro and in vivo insecticidal activity. Replacement of chloropyridinyl in IMI with AB leads to a deleterious effect on in vivo activity to house fly as exemplified by analogues AMI-1, 2 and 5 with LD50 values of more than 10 μg/g irrespective of irradiation or not. […] No obvious difference was observed between the trans and cis form of AMI-9.
House fly adults were anesthetized with carbon dioxide for 10 min and then were treated with the AMIs dissolved in distilled water or 10% DMSO aqueous solution by intrathoracic injection (0.4 μL for each fly). Twenty flies were treated for each dosage with duplicate samples. The mortality rates were counted twenty-four hours after treatment. Each treatment had three repetitions and the data subjected to probit analysis.

house fly brain nAChR = experiment: nAChR binding in vitro, competitive inhibition of [3H]NMI binding; details: 1 nM [3H]NMI, house fly head membranes, read-out: Musca domestica in vitro IC50, [3H]NMI
Method: Tritium labeled nitromethylene analogue of IMI ([^3H]NMI) is a unique reporter for monitoring nAChR binding not only in vitro but also in vivo due to its extremely high binding potency. Here, the in vitro interaction of AMIs with house fly brain nAChR was measured by competitive inhibition of [^3H]NMI binding (Table 2). Photoisomers of AMI-1, 2, 5, and 6 had very poor ability to displacing [^3H]NMI binding (IC50 > 2000 nM) leading to difficulty for difference judgement. […] A 4-fold difference was achieved on AMI-4 and 10 upon photoirradiation. Compounds AMI-9 or AMI-10 have some similarities with the bis-IMI derivatives disclosed by Kagabu et al.[49][50][51]. […] Among various spacers investigated, the heptamethylene or furan-2,5-dimethylene was the optimal bridge. The N-PhN=NPh-N lengths for trans and cis isomers of AMI-9 or AMI-10 are about 12.29 Ǻ and 6.82 Ǻ or 12.59 Ǻ and 8.14 Ǻ, respectively. While for the bis-IMI linked by heptamethylene, the distance is 9.96 Ǻ, close to that of cis-AMI-10. The shorter or longer distance of the linker may decrease the activity. Furthermore, the lack of heteroatom in the AB linker which is important for stabilizing the interaction with the receptor further attenuated the activity.
House fly heads were collected after the fly adults frozen with liquid nitrogen were broken into body parts. Then the heads were homogenized in 0.1 mM EDTA, 0.32 M sucrose and 100 mM sodium phosphate (pH 7.4). The homogenate was treated by filtering through four layers of 64-μm mesh nylon screen. After centrifuging at 500 g for 30 min, the supernatant was collected and again filtered through using the method above. After centrifuging at 25,000 g for 60 min at 4 °C, the pellet was resuspended in binding buffer (mixture of 50 mM sodium chloride and 10 mM sodium phosphate, pH 7.4). These brain membranes were used fresh or stored for up to several weeks at −80 °C. Then 1 nM [^3H]NMI, varying concentrations of neonicotinoids and 300–500 μg membrane protein in a final volume of 500 μL was incubated at 22 °C for 60 min. The reaction mixture was filtered through Whatman GF/B glass-fiber filters prewetted by binding buffer using a Brandel M-24R Harvester (Gaithersburg, MD) to quantitate the bound [^3H]NMI, followed by two rinses each with binding buffer (5 mL) and final liquid scintillation. Nonspecific binding was determined with unlabeled NMI (20 μM). Specific binding was about 80–90% of total binding. The percentage inhibition was determined from two (compounds AMI-1, AMI-2, AMI-5, AMI-6 and azobenzene whose activities were extremely low) or three separate experiments each with triplicate samples. Half maximal inhibitory concentration (IC50) were determined by nonlinear regression analysis for logarithm of inhibitor concentration versus probit percentage inhibition.

[3] = Photoswitching cycles / constant irradiation (fatigue resistance); format: physicochemical; details: multiple cycles of photoisomerization or constant irradiation at 365 nm for 1 h

Compound	λmax n-π* (cis) [1] [nm]	λmax π-π* (trans) [1] [nm]	Musca domestica in vivo LD50 ([2]; irradiated)	Musca domestica in vivo LD50 ([2]; nonirradiated)	IC50 (house fly brain nAChR; irradiated) [nM]	IC50 (house fly brain nAChR; nonirradiated) [nM]	photo bleaching or photo-oxidation [3]	poisoning sign in house fly ([2]; under the tested concentrations)	Musca domestica in vivo LD50 ([2]; irradiated, listed as 5)	Musca domestica in vivo LD50 ([2]; nonirradiated, listed as 5)
2-chloro-5-(((E)-2-(nitromethylene)-3-(2-((E)-phenyldiazenyl)benzyl)imidazolidin-1-yl)methyl)pyridine [AMI-6]	433	322	>10 µg/g	>10 µg/g	> 2000	> 2000				
O=[N+]([O-])/N=C1\N(Cc2ccc(Cl)nc2)CCN1Cc1cccc(/N=N/c2ccccc2)c1 [AMI-3]	431	317	4.4 ± 0.7 µg/g	3.9 ± 0.5 µg/g	1140 ± 106	250 ± 22				
O=[N+]([O-])/N=C1/N(Cc2ccc(/N=N/c3ccccc3)cc2)CCN1Cc1ccc(Cl)nc1 [AMI-4]	433	322	9.2 ± 1.6 µg/g	6.5 ± 1.0 µg/g	1220 ± 98	818 ± 92				
O=[N+]([O-])/N=C1\N(Cc2ccc(Cl)nc2)CCN1Cc1cccc(/N=N/c2cccc(CN3CCN(Cc4ccc(Cl)nc4)/C3=N\[N+](=O)[O-])c2)c1 [AMI-9]	429	319	3.0 ± 0.6 µg/g	5.1 ± 0.8 µg/g	1340 ± 154	1160 ± 141				
O=[N+]([O-])N=C1N(Cc2ccc(N=Nc3ccc(CN4CCN(Cc5ccc(Cl)nc5)C4=N[N+](=O)[O-])cc3)cc2)CCN1Cc1ccc(Cl)nc1 [AMI-10]	434	325	0.5 µg/g and 0.5 ± 0.08 µg/g	2.8 µg/g and 2.8 ± 0.4 µg/g	112 ± 13	466 ± 55	No photo bleaching or photo-oxidation could be observed			
O=[N+]([O-])NC1=NCCN1Cc1ccc(Cl)nc1 [IMI, imidacloprid]			0.05 ± 0.01 µg/g	0.05 ± 0.01 µg/g	28.8 ± 4	28.8 ± 4				
c1ccc(/N=N/c2ccccc2)cc1 [azobenzene]			>10 µg/g	>10 µg/g	> 2000	> 2000		no significant poisoning sign was detected		
(E)-1-(3-(((E)-2-(nitromethylene)imidazolidin-1-yl)methyl)phenyl)-2-(3-(((Z)-2-(nitromethylene)imidazolidin-1-yl)methyl)phenyl)diazene [AMI-7]	432	321	5.3 ± 1.0 µg/g	7.9 ± 1.1 µg/g	1730 ± 135	1860 ± 151				
(Z)-2-(nitromethylene)-1-(2-((E)-phenyldiazenyl)benzyl)imidazolidine [AMI-5]	436	320	>10 µg/g	>10 µg/g	> 2000	> 2000			more than 10 μg/g	more than 10 μg/g
